From patent EP4707280A1, “1,4-CINEOLE DERIVATIVE AND INTERMEDIATE THEREOF, HERBICIDE CONTAINING SAID DERIVATIVE AS ACTIVE INGREDIENT, METHOD FOR USING HERBICIDE, AND METHOD FOR PREPARING AGROCHEMICAL COMPOSITION” (HOKKO CHEMICAL INDUSTRY CO., LTD., priority 2023, dated 2024)

Assays:
Lindernia pyxidaria = experiment: Test Example 6: herbicidal effect test by application during growth period of paddy rice (low dose); format: in vivo; details: 7.5 g per 10 ares, applied seven days after sowing, flooded pots, 14 days after application, read-out: weed inhibition rate
Method in brief: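 Paddy-soil pots, flooded ~3 cm after sowing weed seeds at 0-1 cm depth, greenhouse-grown. Seven days after sowing, diluted emulsifiable concentrate applied by dropper at 7.5 g active ingredient per 10 ares. Weed inhibition rate (%) scored 14 days after application, in duplicate.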

Amaranthus viridis = experiment: Test Example 8: herbicidal effect test by stem and leaf treatment in upland field (low dose); format: in vivo; details: 7.5 g per 10 ares, sprayed seven days after sowing, upland soil, 14 days after application, read-out: weed inhibition rate
Method in brief: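 Post-emergence spray, seven days after sowing, of water-diluted emulsifiable concentrate at 100 L per 10 ares, delivering 7.5 g active ingredient per 10 ares, onto 36 cm^2 pots of alluvial loam. Weed inhibition rate (%) scored 14 days after application, in duplicate.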

Structure (SMILES) | inhibition at 75 g/ha (Lindernia pyxidaria) [%] | inhibition at 75 g/ha (Amaranthus viridis) [%]
C=CCO[C@@H]1C[C@]2(C)O[C@@]1(C(C)C)C[C@H]2OCc1ccccc1F [1-930, (1S,2R,4R,5R)-2-[(2-fluorophenyl)methoxy]-1-methyl-4-isopropyl-5-prop-2-enoxy-7-oxabicyclo[2.2.1]heptane] | ≥ 80 | ≥ 80
Cc1ccccc1CO[C@@H]1C[C@]2(C(C)C)O[C@@]1(C)C[C@@H]2F [1-2, (1R,2S,4S,5R)-2-fluoro-1-isopropyl-4-methyl-5-((2-methylbenzyl)oxy)-7-oxabicyclo[2.2.1]heptane] | – | ≥ 80
C#CCO[C@@H]1C[C@]2(C)O[C@@]1(C(C)C)C[C@H]2OCc1ccccc1F [1-931, (1S,2R,4R,5R)-2-[(2-fluorophenyl)methoxy]-1-methyl-4-isopropyl-5-prop-2-ynoxy-7-oxabicyclo[2.2.1]heptane] | ≥ 80 | ≥ 80
CC(C)[C@]12C[C@@H](OCc3ccccc3F)[C@](C)(CC1OCC1CC1)O2 (mixture of isomers) [1-921, (1S,2R,4R,SR)-5-(cyclopropylmethoxy)-2-[(2-fluorophenyl)methoxy]-1-methyl-4-isopropyl-7-oxabicyclo[2.2.1]heptane] | ≥ 80 | ≥ 80
CC(C)[C@]12C[C@@H](OCc3c(F)cccc3F)[C@](C)(CC1=O)O2 [2-20, (1R,4S,5R)-5-((2,6-difluorobenzyl)oxy)-1-isopropyl-4-methyl-7-oxabicyclo[2.2.1]heptan-2-one] | ≥ 80 | –
